In test [1] the test system is Wistar rats. To be noted: general statement on standards; cited from earlier work.
Test [2] relates to male NIH Swiss mice. Briefly: Marble burying assay. The format is in vivo, mouse. Conditions: with rotorod performance. The text has this:
Marble burying in mice has been used to model anxiety disorders including obsessive-compulsive disorders (OCD) due to ethological study of the behavior (e.g. Gyertyan I. “Analysis of the marble burying response: Marbles serve to measure digging rather than evoke burying”, Behavioural Pharmacology 6: 24-31, (1995)) and due to the pharmacological effects of clinical standards (c.f., Njung'E K. Handley S L. “Evaluation of marble-burying behavior as a model of anxiety”, Pharmacology, Biochemistry & Behavior. 38: 63-67, (1991)); Borsini F., Podhorna J., and Marazziti, D. “Do animal models of anxiety predict anxiolytic effects of antidepressants?”, Psychopharmacology 163: 121-141, (2002)).
House experimentally-naïve male, NIH Swiss mice (Harlan Sprague-Dawley, Indianapolis, Ind.) weighing between 28-35 g in groups of 12 for at least three days prior to testing in a vivarium with 12 h light and dark cycles. Conduct experiments during the light cycle in a dimly lit experimental testing room. Dose mice with vehicle or test compound and, after a specified pretreatment interval (generally 30 min.), place each mouse individually on a rotorod (Ugo Basile 7650) operating at a speed of 6 revolutions/min. and observe for falling. […]
Clinically effective standard compounds suppress marble burying at doses that are devoid of motor-impairing effects as measured on the rotorod. […]
(Falling from the rotarod earlier than controls is read as motor impairment.)

Test [3] concerns Wistar rats. In words: Schedule-induced polydipsia. Conditions: rat, in vivo. The text has this: Food-deprived rats exposed to intermittent presentations of food will drink amounts of water that are far in excess of their normal daily intake and in excess of their intake when given all of their food at one time (Falk J L. “Production of polydipsia in normal rats by an intermittent food schedule”, Science 133: 195-196, (1961)). This excessive behavior is persistent and has been used to model OCD.
Maintain Wistar rats on a food restricted diet (to maintain 85% free feeding weight), but with free access to water. Train the rats in a behavioral testing chamber to press a lever to receive a food pellet under a fixed interval schedule, such that the rats are rewarded with a 45 mg food pellet the first time they press a lever after a 120 second interval has elapsed. The fixed interval is then reset to 120 seconds and the process repeated. Thus, during a 90 min. test session, the rats can earn a maximum of 45 pellets. The behavioral chamber is also equipped with a water bottle that is weighed before and after the session to determine the amount of water consumed.
Administer test compounds on Tuesdays and Fridays. […] Compare the rates of lever pressing and water consumption for each animal's performance during sessions after test compound treatment with that animal's performance during control sessions, expressed as a percent of the control rate. […]

For test [4], the system named is male NIH Swiss mice. In words: Nestlet shredding. Conditions: with rotorod / motor effects. The format is in vivo, mouse. The text has this: Mice naturally will construct nests of material available in their living environment. Since this behavior is obsessive in nature, it has been used to model OCD (Xia Li, Denise Morrow and Jeffrey M. Witkin, “Decreases in nestlet shredding of mice by serotonin uptake inhibitors: comparison with marble burying”, Psychopharmacology, submitted Jul. 14, 2003). House experimentally-naïve male, NIH Swiss mice (Harlan Sprague-Dawley, Indianapolis, Ind.) weighing between 28-35 g in groups of 12 for at least three days prior to testing in a vivarium with a 12 h light/dark cycle. Conduct experiments during the light cycle in an experimental room with normal overhead fluorescent lighting. Dose mice with vehicle or test compound and after a specified pretreatment interval (generally 30 min.), place the mice individually in a 17×28×12 cm high plastic tub with about 5 mm sawdust shavings on the floor along with a pre-weighed multi-ply gauze pad (51 mm square). After 30 min., weigh the remainder of the gauze pad not removed by the mouse. Determine the weight of the gauze used for nestlet construction by subtraction. Compare the results for test compound treated mice to the results for vehicle control treated mice with Dunnett's test.
Clinically effective OCD treatment standard compounds suppress nestlet shredding at doses that are devoid of motor-impairing effects as measured by the rotorod test. […]

Test [5] deals with male NIH Swiss mice. Conditions: background statement; cited from earlier work.

This is an account of results in patent US8420631B2, “6-substituted-2,3,4,5-tetrahydro-1H-benzo[d]azepines as 5-HT2C receptor agonists” (Eli Lilly and Company, priority 2005, dated 2013).

Take `CN(C)CCCN1c2ccccc2CCc2ccc(Cl)cc21` [chlomipramine]: the “schedule-induced polydipsia, clinically effective OCD standard compounds” value in the test with Wistar rats [1] is “suppress schedule-induced polydipsia without producing notable changes in motor patterns, food intake, or behavior the following day”.

For `CN(C)CCCN1c2ccccc2Sc2ccc(Cl)cc21` [chlorpromazine], in the test on male NIH Swiss mice [2], the marble burying behavior entry was “decrease marble burying only at doses that also disrupt rotorod performance”.

`C[C@H](N)Cc1ccccc1` [d-amphetamine]: in the test on Wistar rats [3], the “schedule-induced polydipsia (excessive drinking)” value is on record as “decreases excessive drinking only at behaviorally stimulating doses” and the “suppression of excessive drinking with co-administration of the 5-HT2C antagonist” value is given as “not prevented”. Further, the nestlet shredding entry with male NIH Swiss mice [4] is on record as “decreases nestlet shredding only at doses that produce motoric side effects”.

On to `CNCCC(Oc1ccc(C(F)(F)F)cc1)c1ccccc1` (stereo not shown) [fluoxetine], for which the “marble burying (literature)” value in the test on male NIH Swiss mice [5] is on record as “decrease burying”. Besides, in the test on Wistar rats [1], the “schedule-induced polydipsia, clinically effective OCD standard compounds” value is given as “suppress schedule-induced polydipsia without producing notable changes in motor patterns, food intake, or behavior the following day”.
